Laboratory results published in patent US8563472B2 (priority 2010, dated 2013).

Tests used:
[1] = test system: Leptosphaeria nodorum (LEPTNO); assay: In vitro fungitoxicity assay against Leptosphaeria nodorum in copper-minus / copper-plus liquid medium; format: cell-based; details: for inhibition of growth at 0.05 µg/mL: Parastagonospora nodorum, copper-minus medium, growth by light scattering, read-out: LEPTNO % Inhn. Minus Copper Observed; for inhibition of growth at 0.05 µg/mL / LEPTNO % Inhn. Plus Copper Observed: test compound 0.05 μg/mL, 25° C., 72 h; for LEPTNO % Inhn. Plus Copper Observed: copper-plus medium (CuCl2.2H2O)
Method: In vitro fungitoxicity assays against Leptosphaeria nodorum (LEPTNO) were conducted using the liquid growth medium described by Coursen and Sisler (American Journal of Botany 1960, 47, 541-549) except that copper micronutrient, normally included as CuSO4, was omitted. The medium, termed “copper-minus”, was prepared by dissolving 10 g glucose, 1.5 g K2HPO4, 2 g KH2PO4 and 1 g (NH4)2SO4 in 1 liter of deionized water and treating the solution with 0.5 g Chelex 100 resin (Bio-Rad Analytical grade, 50-100 mesh, sodium form, cat#142-2822) by stirring at room temperature for 1 h. MgSO4.7H2O (0.5 g) was added, and stirring was continued for a further hour. Trace elements (minus CuSO4), and vitamins described by Coursen and Sisler were added from concentrated stock solutions and the entire medium was sterilized by filtration. Medium containing copper was prepared by adding CuCl2.2H2O to the copper-minus medium at 20 μM. […] Copper-minus medium (100 μL) was added to one of the wells and copper-plus medium to the second well. Control wells, included for each medium, received 1 μL DMSO and 100 μL of medium.
LEPTNO was grown on potato dextrose agar in 9 cm diameter petri dishes for 7 days (d). Sterile deionized water (20 mL) was added to a culture plate and spores suspended by scraping the surface gently with a sterile plastic loop. The resulting suspension was filtered through a double layer of sterile cheesecloth. […] The spores were resuspended in copper-minus medium, and the suspension adjusted to 2×10^5 spores per mL. Microtiter plates were inoculated with 100 μL of this spore suspension and the plates incubated at 25° C. for 72 h before assessing fungal growth by measuring light scattering in a NepheloStar plate reader. Growth inhibition was determined by comparing growth in the presence of test compound with growth in control wells lacking test compound.

[2] = test system: Phytophthora infestans; format: in vivo; details: hydrazone 50 ppm with 50 μM CuCl2.2H2O, applied 24 h before inoculation, tomato plants, assessed 7 d after inoculation

Structure (SMILES)	melting point	inhibition of growth at 0.05 µg/mL [1]	LEPTNO % Inhn. Plus Copper Observed [1]	TLB % control [2]	LEPTNO % inhibition attributed to copper chloride alone ([1]; CuCl2 10 μM, no test compound, copper-plus vs copper-minus medium across experiments)
Cc1cc(C(=O)N/N=C/c2cc(Cl)cc(Cl)c2O)c2cc(Br)ccc2n1 [Compound 1]	265 to 267 °C	2.5%	73.8%	7%	
C/C(=N\NC(=O)c1cc(C)nc2ccc(Br)cc12)c1ccccc1O [Compound 2]	251 to 254 °C	0%	83.4%	36%	
Cc1cc(C(=O)N/N=C/c2ccccc2O)c2cc(Br)ccc2n1 [Compound 3]	270 to 275 °C	0%	72.9%	25%	
Cc1c(C(=O)N/N=C/c2ccccc2O)[nH]c2c([N+](=O)[O-])cccc12 [Compound 4]	296 to 299 °C	11.3%	91.4%	4%	
O=C(N/N=C/c1cc(Cl)ccc1O)c1cccs1 [Compound 5]		0%	95.8%	54%	
Cc1occc1C(=O)N/N=C/c1cc(Br)ccc1O [Compound 6]		2.2%	96.7%	75%	
O=C(N/N=C/c1ccccc1O)c1cccs1 [Compound 7]		0%	87.3%	38%	
Cc1ccc(C(=O)N/N=C/c2cc(Br)cc(Cl)c2O)cn1 [Compound 8]		0%	60.9%	0%	
C/C(=N\NC(=O)c1ccoc1C)c1ccccc1O [Compound 9]		3.9%	97%	60%	
Cc1occc1C(=O)N/N=C/c1cc(Cl)cc(Cl)c1O [Compound 10]		8.7%	98.1%	67%	
C=CCc1cccc(/C=N/NC(=O)c2ccc(Br)o2)c1O [Compound 11]		12.9%	95.1%	31%	
O=C(N/N=C/c1cc(Cl)cc(Cl)c1O)c1sc(C(F)(F)F)nc1C(F)(F)F [Compound 12]	189 to 190 °C	49.8%	94.7%	57%	
O=C(N/N=C/c1cc(Cl)cc(Cl)c1O)c1ccco1 [Compound 14]		0%	56.2%	52%	
Cn1cc(C(=O)N/N=C/c2cc(Cl)cc(Cl)c2O)c2ccccc21 [Compound 15]	215 to 217 °C	16.3%	98.1%	12%	
CCn1nc(C)cc1C(=O)N/N=C/c1cc(Cl)cc(Cl)c1O [Compound 16]	221 to 222 °C	3.5%	88%	39%	
O=C(N/N=C/c1cc(Cl)cc(Cl)c1O)c1cnn(-c2ccc(Cl)cc2)c1C(F)(F)F [Compound 17]	216 to 217 °C	15.8%	92.6%	69%	
O=C(N/N=C/c1ccccc1)c1cnn(-c2ccc(Cl)cc2)c1C(F)(F)F [Compound 18]	205 to 207 °C	0%	92.5%	7%	
O=C(N/N=C/c1ccccc1O)c1sc2ccccc2c1Cl [Compound 19]		0%	92.1%	44%	
O=C(N/N=C/c1ccccc1O)c1cc2ccccc2s1 [Compound 20]	220 to 221 °C	4.2%	95.4%	18%	
Cc1nn(-c2ccccc2)nc1C(=O)N/N=C/c1ccccc1O [Compound 21]	231 to 233 °C	0%	93.9%	16%	

Structure (SMILES)	melting point	inhibition of growth at 0.05 µg/mL [1]	LEPTNO % Inhn. Plus Copper Observed [1]	TLB % control [2]	LEPTNO % inhibition attributed to copper chloride alone ([1]; CuCl2 10 μM, no test compound, copper-plus vs copper-minus medium across experiments)
O=C(N/N=C/c1ccccc1O)c1snnc1-c1ccccc1 [Compound 22]	191 to 192 °C	9.6%	77.9%	56%	
O=C(N/N=C/c1ccccc1O)c1ccc(Cl)s1 [Compound 23]	228 to 230 °C	0%	96.3%	32%	
Cc1cc(C(=O)N/N=C/c2ccccc2O)cs1 [Compound 24]	180 to 182 °C	2.9%	94.8%	56%	
Cc1nc(C)c(C(=O)N/N=C/c2cc(Cl)cc(Cl)c2O)s1 [Compound 25]	217 to 219 °C	0%	81.9%	71%	
O=C(N/N=C/c1cc(Cl)cc(Cl)c1O)c1ccc(Cl)s1 [Compound 26]	248 to 250 °C	2.7%	97.5%	92%	
Cc1cc(C(=O)N/N=C/c2cc(Cl)cc(Cl)c2O)cs1 [Compound 27]	189 to 191 °C	5.4%	97.3%	78%	
O=C(N/N=C/c1cc(Cl)cc(Cl)c1O)c1ccsc1 [Compound 28]	315 to 318 °C	4.4%	97.6%	80%	
O=C(N/N=C/c1cc(Br)cc(Br)c1O)c1cnn(-c2ccc(Cl)cc2)c1C(F)(F)F [Compound 29]	237 to 238 °C	7.8%	57.6%	47%	
Cc1nc(C)c(C(=O)N/N=C/c2cc(Br)cc(Br)c2O)s1 [Compound 30]	225 to 226 °C	1%	71.2%	49%	
O=C(N/N=C/c1cc(Br)cc(Br)c1O)c1ccc(Cl)s1 [Compound 31]	247 to 248 °C	4.9%	97.8%	88%	
Cc1cc(C(=O)N/N=C/c2cc(Br)cc(Br)c2O)cs1 [Compound 32]	203 to 205 °C	0%	97.6%	69%	
Cc1occc1C(=O)N/N=C/c1cc(Br)cc(Br)c1O [Compound 33]	270 to 272 °C	9.1%	97.8%	66%	
O=C(N/N=C/c1cc(Br)cc(Br)c1O)c1ccsc1 [Compound 34]	236 to 237 °C	0%	97.9%	80%	
C/C(=N\NC(=O)c1cnn(-c2ccc(Cl)cc2)c1C(F)(F)F)c1ccccc1O [Compound 35]	201 to 202 °C	4.3%	94.8%	59%	
C/C(=N\NC(=O)c1cn(-c2ccccc2)nc1O)c1ccccc1O [Compound 36]	276 to 277 °C	9.2%	92.5%	66%	
C/C(=N\NC(=O)c1sc(C)nc1C)c1ccccc1O [Compound 37]	202 to 204 °C	0%	94.2%	81%	
C/C(=N\NC(=O)c1ccc(Cl)s1)c1ccccc1O [Compound 38]	204 to 205 °C	0%	98%	56%	
C/C(=N\NC(=O)c1csc(C)c1)c1ccccc1O [Compound 39]	158 to 160 °C	0%	97.3%	66%	
C/C(=N\NC(=O)c1ccsc1)c1ccccc1O [Compound 40]	148 to 150 °C	0%	96.8%	80%	
O.O.[Cl][Cu][Cl] [CuCl2, CuCl2.2H2O, reference compound]					9.3 ± 1.6%
